Values joined by “and” are separate entries in the source; they are usually repeats but may differ in a detail not shown here. Equal entries are not always repeated. Where two headings read alike, the source gives them in different places.
Tests used:
[1] = system: Human umbilical vein endothelial cells (HUVEC); experiment: HUVEC proliferation assay, VEGF-dependent growth ([3H]-thymidine incorporation); format: cell-based; conditions: for inhibition at 0.1 µM / inhibition at 10 µM / inhibition at 1 µM: Homo sapiens, HUVEC
Experimental: Cells were plated into 96-well dishes (4000 cells per well) and allowed to attach overnight. HUVEC were rinsed one time with 100 μl of EBMc-V (EBM supplemented with all above components except serum or VEGF), then 50 ul of EBMc-V was added to cells. Compounds were prepared at 200× stocks in DMSO, diluted into EBMc-V media as 4× stocks, then 50 ul added to appropriate wells. Finally, 100 μl of 2×VEGF (100 ng/ml prepared in EBMc-V; final 50 ng/ml VEGF) was added to all VEGF-treated wells. EBMc-V (no VEGF) was added to negative control wells. Parallel compound-treated plates were prepared except that 100 μl of EGM2 media containing 2% serum but lacking VEGF (EGMc-V) was added. Cells were incubated for 4-5 days at 37° C.
DNA synthesis was assessed by thymidine incorporation. Cells were incubated for 5 hours in 1 μCi of [^3H]-thymidine (PerkinElmer) by addition of 10 ul of 0.1 μCi/ul thymidine prepared in PBS to each well. After incubation, media was aspirated and the cells trypsinized and collected onto a mat using a vacuum-based Micro Cell Harvester (Skatron). [^3H]-thymidine was counted in a liquid scintillation counter. Compounds evaluated for ability to inhibit VEGF-dependent growth of human umbilical vein endothelial cells (HUVEC).

[2] = target: T1, human KDR (VEGF-receptor-2) (Homo sapiens, UniProt P35968); experiment: KDR kinase enzyme assay (DELFIA, KDR-IC-Flag, poly(Glu4-Tyr) peptide); format: biochemical; conditions: for inhibition at 0.1 µM: Concentration 100 nM; for inhibition at 1 µM: Concentration 1000 nM
T1 construct: beginning at Met-806; (5′-ATG GAT CCA GAT GM CTC CCA TTG) and ending at Val-1356; made in house
T1 sequence (P35968 806-1356): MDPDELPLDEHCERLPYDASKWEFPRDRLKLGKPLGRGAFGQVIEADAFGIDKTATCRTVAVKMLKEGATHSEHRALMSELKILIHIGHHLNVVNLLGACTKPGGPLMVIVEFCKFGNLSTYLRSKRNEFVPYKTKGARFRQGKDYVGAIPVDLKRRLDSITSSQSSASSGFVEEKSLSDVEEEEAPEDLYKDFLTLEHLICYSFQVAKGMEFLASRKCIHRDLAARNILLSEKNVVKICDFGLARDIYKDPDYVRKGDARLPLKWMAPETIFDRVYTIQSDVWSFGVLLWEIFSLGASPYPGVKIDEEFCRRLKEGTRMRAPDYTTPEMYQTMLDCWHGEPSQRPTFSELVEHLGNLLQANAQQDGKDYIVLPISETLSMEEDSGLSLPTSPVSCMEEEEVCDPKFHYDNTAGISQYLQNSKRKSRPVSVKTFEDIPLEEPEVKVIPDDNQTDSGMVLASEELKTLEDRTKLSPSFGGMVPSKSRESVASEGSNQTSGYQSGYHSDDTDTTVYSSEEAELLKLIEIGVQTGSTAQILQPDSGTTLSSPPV

[3] = ATP conc. 10 μM, read-out: % Inhibition
[4] = ATP conc. 1000 μM, read-out: % Inhibition

Row | IC50 ([2]; ATP conc. 10 μM) [nM] | inhibition at 0.1 µM [2, 3] [%] | inhibition at 1 µM [2, 3] [%] | SMILES | inhibition at 0.1 µM ([1]; conc. 100 nM) [%] | inhibition at 10 µM ([1]; conc. 10000 nM) [%] | inhibition at 1 µM ([1]; conc. 1000 nM) [%] | other results
1 | – | – | – | COCCOc1cc2ncnc(NC3=CC(=O)C(C)=CC3=O)c2cc1OC [Example 15, 2-{[6-methoxy-7-(2-methoxyethoxy)-4-quinazolinyl]amino}-5-methylbenzo-1,4-quinone] | 24 | 96 | – | % Inhibition of VEGF-dependent growth of HUVEC ([1]; conc. 100 nM): 40% and 42%; % Inhibition of VEGF-dependent growth of HUVEC ([1]; conc. 1000 nM): 86% and 95% and 67%; % Inhibition of VEGF-dependent growth of HUVEC ([1]; conc. 10000 nM): 98% and 97%
2 | – | – | – | COCCOc1cc2ncnc(NC3=CC(=O)C(Cl)=CC3=O)c2cc1OC [Example 25, 2-chloro-5-{[6-methoxy-7-(2-methoxyethoxy)quinazolin-4-yl]amino}benzo-1,4-quinone] | 29 | 81 | 51 | –
3 | – | – | – | COCCOc1cc2ncnc(NC3=CC(=O)C(Oc4ccc(F)cc4)=CC3=O)c2cc1OC [Example 30, 2-(4-fluorophenoxy)-5-{[6-methoxy-7-(2-methoxyethoxy)quinazolin-4-yl]amino}benzo-1,4-quinone] | – | – | – | inhibition at 0.1 µM ([2]; ATP conc. 10 μM): 83%; inhibition at 1 µM ([2]; ATP conc. 10 μM): 96%; inhibition at 1 µM ([2]; ATP conc. 1000 μM): 98%
4 | – | – | – | COCCOc1cc2ncnc(NC3=CC(=O)C(Oc4ccc(C#N)cc4)=CC3=O)c2cc1OC [Example 31, 4-[(4-{[6-methoxy-7-(2-methoxyethoxy)quinazolin-4-yl]amino}-3,6-dioxocyclohexa-1,4-dien-1-yl)oxy]benzonitrile] | – | – | – | inhibition at 0.1 µM ([2]; ATP conc. 10 μM): 82%; inhibition at 1 µM ([2]; ATP conc. 10 μM): 96%; inhibition at 1 µM ([2]; ATP conc. 1000 μM): 98%
5 | 4.8 | – | – | COCCOc1cc2ncnc(NC3=CC(=O)C(Oc4ccc(OC)cc4)=CC3=O)c2cc1OC [Example 32, 2-{[6-methoxy-7-(2-methoxyethoxy)quinazolin-4-yl]amino}-5-(4-methoxyphenoxy)benzo-1,4-quinone] | 10 | 98 | 41 | inhibition at 0.1 µM ([2]; ATP conc. 10 μM): 88%; inhibition at 1 µM ([2]; ATP conc. 10 μM): 96%; inhibition at 1 µM ([2]; ATP conc. 1000 μM): 98%
6 | – | 79 | 96 | COCCOc1cc2ncnc(NC3=CC(=O)C(Oc4ccc(C(F)(F)F)cc4)=CC3=O)c2cc1OC [Example 36, 2-{[6-methoxy-7-(2-methoxyethoxy)quinazolin-4-yl]amino}-5-[4-(trifluoromethyl)phenoxy]benzo-1,4-quinone] | – | – | – | inhibition at 1 µM [2, 4]: 98%
7 | 121 | 45 | 89 | COCCOc1cc2ncnc(NC3=CC(=O)C(Oc4cccc(C(F)(F)F)c4)=CC3=O)c2cc1OC [Example 43, 2-{[6-methoxy-7-(2-methoxyethoxy)quinazolin-4-yl]amino}-5-[3-(trifluoromethyl)phenoxy]benzo-1,4-quinone] | – | 88 | 36 | –
8 | 62.2 | 69 | 81 | COCCOc1cc2ncnc(NC3=CC(=O)C(Oc4ccc(C(C)(C)c5ccccc5)cc4)=CC3=O)c2cc1OC [Example 56, 2-{[6-methoxy-7-(2-methoxyethoxy)quinazolin-4-yl]amino}-5-[4-(1-methyl-1-phenylethyl)phenoxy]benzo-1,4-quinone] | – | – | – | –
9 | 273 | 41 | 85 | COCCOc1cc2ncc(C#N)c(NC3=CC(=O)C(Oc4ccccc4)=CC3=O)c2cc1OC [Example 71, 4-[(3,6-dioxo-4-phenoxycyclohexa-1,4-dien-1-yl)amino]-6-methoxy-7-(2-methoxyethoxy)quinoline-3-carbonitrile] | – | – | – | inhibition at 1 µM [2, 4]: 58%
10 | – | – | – | COCCOc1cc2ncnc(NC3=CC(=O)C(N(C)c4ccccc4)=CC3=O)c2cc1OC [Example 76, 2-{[6-methoxy-7-(2-methoxyethoxy)quinazolin-4-yl]amino}-5-[methyl(phenyl)amino]benzo-1,4-quinone] | -30 | 96 | 63 | –
11 | – | – | – | COCCOc1cc2ncnc(NC3=CC(=O)C(OC)=CC3=O)c2cc1OC [Example 105, 2-(methoxy)-5-{[6-methoxy-7-(2-methoxyethoxy)quinazolin-4-yl]amino}benzo-1,4-quinone] | -1 | 88 | 36 | –

Reference: patent publication US20070299092A1 (Wyeth, priority 2004, published 2007)
